{"source": "patent US20210268030A1", "about": "“FIBROADIPOGENIC PROGENITOR-DERIVED EXOSOMES FOR REGENERATION OF DYSTROPHIC MUSCLES” (EXOFIX S.R.L., priority 2018, published 2021)", "key": {"miR-206": {"test_system": "miR-206", "test": "miR-206 in situ hybridization of tibialis anterior sections", "assay_type": "in vivo", "settings": "young mdx mice (1.5 months of age)", "method": "Animals were used at the specified age and treated for the indicated periods with daily intra peritoneal injections of Trichostatin A, TSA (0.6 mg/kg/day; #T8552, Sigma), dissolved in phospate-saline solution or in phospate-saline alone as vehicle control (CTR). Muscle injury was performed by intramuscular injection in Tibliais Anterior (TA) of Cardiotoxin—CTX− (10 μM, 10 mg/mL) (#L8102, Lotaxan Valence, France, http://www.latoxan.com), 3 days before mice sacrifice. […]\nOf note, transgenic miR-206 upregulation has been exploited as tool for the treatment of DMD and other muscular disorders (Liu et al., 2012; Williams et al., 2009; Fry et al., 2017). […] The same pattern could be observed in mdx mice, in which an abundant miR-206 signal was detected in the interstitium of tibialis anterior muscles, overlapping with the immunofluorescence staining of the FAP's marker Sca-1 (FIG. 3H). […] We performed a quantitative assessment of exosomal miR-206, by isolating whole tibialis anterior (TA) muscles from TSA-treated mdx muscle or untreated control mdx mice, followed by gentle dissociation and exosome isolation."}, "Notch3": {"test_system": "Notch3", "test": "Notch3 transcripts in MuSCs isolated from treated mdx mice", "assay_type": "in vivo", "settings": "MuSCs isolated from mdx mice treated with TSA", "method": "(§1) Animals were used at the specified age and treated for the indicated periods with daily intra peritoneal injections of Trichostatin A, TSA (0.6 mg/kg/day; #T8552, Sigma), dissolved in phospate-saline solution or in phospate-saline alone as vehicle control (CTR). Muscle injury was performed by intramuscular injection in Tibliais Anterior (TA) of Cardiotoxin—CTX− (10 μM, 10 mg/mL) (#L8102, Lotaxan Valence, France, http://www.latoxan.com), 3 days before mice sacrifice.\nFor RNA-sequencing sample preparation, MuSCs and FAPs were freshly isolated by FACS from 6 C57BI6 mdx male mice 8-weeks old treated or not with TSA for 15 days. RNA was collected using Trizol) reagent (#T9424, Sigma). About 100 ng/μL of total RNA was sent in duplicate to IGA (Istituto di Genomica Applicata, Udine) for RNA sequencing using Illumina TruSeq Stranded Total RNA kit Ribo-Zero GOLD on Illumina Hiseq2500 platform.\nTo investigate this hypothesis, we evaluated the effect of FAP-derived exosomes from HDACi-treated or control-treated mdx mice on MuSCs within single fibres isolated from WT mice. Freshly isolated single muscle fibres from tibialis anterior, extensor digitorum longus, gastrocnemius and soleus of C57BL6J mice were incubated with FAP-derived exosomes or whole conditioned media, and their effect on MuSCs was evaluated by monitoring the expression of Pax7, MyoD and DNA synthesis (EdU incorporation). […]"}, "mdx muscles": {"test_system": "mdx muscles", "test": "Regeneration, fibrosis and inflammation in mdx tibialis anterior after exosome injection or systemic TSA", "assay_type": "in vivo, mdx mice", "settings": "21 days; exosomes intramuscular every 7 days or TSA daily intra-peritoneal", "method": "as §1\nFAPs-derived exosomes at a final concentration of 10 μg in 20 μL of PBS1x (0.5 ug/μl) (#14190-1444, Gibco by life technologies) and its vehicle of control (20 μl PBS1x) were injected 3 times in left TA of young C57BL6/mdx mice: every 7 days for 21 days.\nFor Masson Trichrome staining to analyze fibrotic tissue, muscle cryo-sections were fixed for 20′ at 56° C. in Bouin's Solution (#HT10132, L Sigma) and then stained in Working Weigert's Iron Hematoxilin solution for 5 min (#HT1079, Sigma), washed in running tap water for 5 min and stained in Biebrich Scarlet-Acid Fucsin for 5 min (#HT151, Sigma). Sections were rinsed in de-ionized water and re-fixed in freshly made Phosphomolybdic/Phosphotungstic/dH2O (1:1:2) acid solution for 8 min (#HT153, #HT152, Sigma), and then they are stained in Aniline Blue solution for 5 min (#HT154, Sigma) and in acid acetic 1% for 2 min (#27221, Sigma). The slides were dehydratated in ethanol (#02860, Sigma) and xilene (#X1040, Sigma) and mounted with EUKITT (#03989, Sigma), then visualized using a Nikon Eclipse 90i: collagen fibers are stained in blue, the nuclei stained in black and the muscle tissue is stained in red. miRNA in situ hybridization was performed as described by Pena (2009) in formaldehyde and carbodiimide (EDC)-fixed TA cryo-sections (0.16M 90 min at RT,_#25952-53-8, Merck KGaA). After washes with 0.2% glycine (#G8898, Sigma) and TBS, cryo-sections were acetylated using 0.1 M triethanolamine and 0.25% acetic anhydride for 25 min at RT (respectively #90275, #A6404, Sigma). This steps are followed by a pre-hybridization using 2× of SSC, 25% formamide (#F9037, Sigma); 0.2% Triton (#X100, Sigma) 30 min at RT and by the over night hybridization at 4° C. with the has-miR206 probe (10 pmol, #18100-01, exiqon) dissolved in a solution of 50% formamide, 250 μg/ml tRNA (#R1753, Sigma), 200 μg/ml SSDNA (#D7656, Sigma), 10% dextran sulphate (#D8906, Sigma) and 2× SSC. The hybridization was followed by specific washes with SSC to eliminate non specific binding of probe (5× SSC 5 min at RT, 1× SSC 15 min at 45° C., 2% BSA in 0.2× SSC 15 min at 4° C., 2× SSC 5 min at RT, TNbuffer 10 min at RT and TNT buffer 15′ at RT) and by the incubation of cryo-section using anti-digoxigenin-ap fab fragments ( 1/100, #11093274910, Roche) dissolved in TNbuffer for 2 hours at RT. To reveal the miRNA probe specific binding cryo-sections, covered from light, were incubating over night at 4° C. with 0.375 mg/ml of NBT and 0.188 mg/ml BCIP dissolved in a solution of TMNbuffer (respectively #11383213001 and #11383221001, Roche).\nFor immunofluorescence analysis, cryo-sections and cells were fixed in 4% PFA for 10 min and permeabilized with 100% cold acetone (#32201, Sigma) for 6 min at −20° C. or 100% cold Methanol (#32213, Sigma) for 6 min at −20° or with 0.25% Triton for 15 min at RT. Muscle sections were blocked for 1 h with a solution containing 4% BSA (#A7030, Sigma) in PBS. […]"}}, "data": [{"smiles": "CC(/C=C/C(=O)NO)=C\\[C@@H](C)C(=O)c1ccc(N(C)C)cc1", "note": "[TSA, Trichostatin A]", "values": [{"measurement": "amount of interstitial miR-206 signal associated with Sca-1 staining", "setting": "miR-206", "value": "increased"}, {"measurement": "Notch3 transcripts", "setting": "Notch3", "value": "reduced"}, {"measurement": "embryonic-MyHC-positive myofibers (eMyHC)", "setting": "mdx muscles", "value": "increase"}, {"measurement": "fibers calibre, cross sectional area (CSA)", "setting": "mdx muscles", "value": "increase"}, {"measurement": "fibrosis", "setting": "mdx muscles", "value": "reduce"}, {"measurement": "inflammation (MPO)", "setting": "mdx muscles", "value": "significant reduction"}, {"measurement": "muscle fiber area fraction (MFAF)", "setting": "mdx muscles", "value": "increase"}]}]}
